Each structure is given as a SMILES string. Calls of active or inactive are those of the source. The calls are words filed in the database; no cut-off is given here. Some results are limits rather than exact numbers.

Data set [1] has as its target Histone-lysine N-methyltransferase EZH2 (Homo sapiens, UniProt O75530+Q09028+Q15022+Q15910, Y641N). Nature of the data set: Inhibition of N-terminally FLAG-tagged EZH2 Y641N mutant in EZH2/SUZ12/EED/RbAp48 complex (unknown origin) expressed in baculovirus infected in SF9 cells assessed as inhibition of methylation of nucleosomes at H3K27 by scintillation counting in presence of [3H]SAM.

In data set [2] the target is T1, Histone-lysine N-methyltransferase SUV39H1 (Homo sapiens, UniProt O43463).
T1 sequence (O43463 whole entry): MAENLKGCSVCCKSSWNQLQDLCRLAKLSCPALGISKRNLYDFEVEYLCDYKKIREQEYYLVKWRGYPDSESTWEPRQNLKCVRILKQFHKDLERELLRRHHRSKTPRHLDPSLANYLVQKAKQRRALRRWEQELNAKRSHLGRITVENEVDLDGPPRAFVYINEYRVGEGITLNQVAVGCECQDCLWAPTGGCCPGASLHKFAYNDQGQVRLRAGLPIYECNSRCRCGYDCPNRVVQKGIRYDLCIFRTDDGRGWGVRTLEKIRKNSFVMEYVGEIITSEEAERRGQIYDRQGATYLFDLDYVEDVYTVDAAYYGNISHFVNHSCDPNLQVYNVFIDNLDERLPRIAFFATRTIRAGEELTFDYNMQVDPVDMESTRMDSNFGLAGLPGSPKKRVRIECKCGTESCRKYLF
Nature of the data set: Inhibition of SUV39H1 (unknown origin) by HMT assay.

The target of data set [3] is T2, Histone-lysine N-methyltransferase SETD7 (Homo sapiens) (UniProt Q8WTS6).
T2 sequence (whole entry): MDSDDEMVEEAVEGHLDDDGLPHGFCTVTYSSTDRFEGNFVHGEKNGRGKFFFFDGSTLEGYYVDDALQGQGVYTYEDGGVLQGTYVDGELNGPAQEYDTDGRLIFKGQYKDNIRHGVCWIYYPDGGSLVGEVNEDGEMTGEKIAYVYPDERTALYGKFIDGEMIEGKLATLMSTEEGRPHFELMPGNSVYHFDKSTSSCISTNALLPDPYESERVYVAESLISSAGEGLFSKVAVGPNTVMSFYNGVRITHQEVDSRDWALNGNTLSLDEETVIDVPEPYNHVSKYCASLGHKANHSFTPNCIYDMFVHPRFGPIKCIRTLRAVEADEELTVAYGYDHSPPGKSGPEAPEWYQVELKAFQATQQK
The note with it: 10 uM.
Description: Inhibition of SETD7 (unknown origin) at 10 uM by HMT assay

Data set [4] has as its target T3, Histone-lysine N-methyltransferase EZH1 (Homo sapiens, UniProt Q92800).
T3 sequence (Q92800 whole entry): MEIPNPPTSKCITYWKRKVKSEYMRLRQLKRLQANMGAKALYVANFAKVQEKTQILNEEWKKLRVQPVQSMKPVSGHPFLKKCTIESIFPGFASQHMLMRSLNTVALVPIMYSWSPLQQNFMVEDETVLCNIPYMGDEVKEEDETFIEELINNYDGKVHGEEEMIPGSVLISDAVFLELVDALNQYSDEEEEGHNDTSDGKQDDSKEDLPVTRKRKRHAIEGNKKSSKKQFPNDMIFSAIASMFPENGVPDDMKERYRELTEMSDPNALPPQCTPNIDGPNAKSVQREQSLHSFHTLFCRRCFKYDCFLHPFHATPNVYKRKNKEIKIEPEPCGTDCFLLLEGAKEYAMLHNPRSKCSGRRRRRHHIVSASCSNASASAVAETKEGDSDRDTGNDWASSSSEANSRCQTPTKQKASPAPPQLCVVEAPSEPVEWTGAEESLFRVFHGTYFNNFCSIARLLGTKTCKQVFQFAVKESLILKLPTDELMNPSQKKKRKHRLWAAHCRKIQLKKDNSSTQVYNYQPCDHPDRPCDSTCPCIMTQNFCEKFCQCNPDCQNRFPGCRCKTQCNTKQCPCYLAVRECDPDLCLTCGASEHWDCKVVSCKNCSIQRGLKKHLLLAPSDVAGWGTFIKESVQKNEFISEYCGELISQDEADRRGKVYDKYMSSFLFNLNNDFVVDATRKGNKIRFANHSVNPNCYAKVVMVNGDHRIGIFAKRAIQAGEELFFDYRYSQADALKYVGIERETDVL
Nature of the data set: Inhibition of EZH1 (unknown origin) by HMT assay.

The nature of data set [5]: Permeability across MDCK2 cells. It is filed as ADME, cell-based, Canis lupus familiaris, MDCK-II. The note with it: dog, MDCK; read-out: permeability.
Data set [6] has as its target Histone-lysine N-methyltransferase SETDB1 (Homo sapiens, UniProt Q15047). Particulars: 10 uM.
Description: Inhibition of SETDB1 (unknown origin) at 10 uM by HMT assay
For data set [7], the target named is Histone-lysine N-methyltransferase SUV39H2 (Homo sapiens, UniProt Q9H5I1). Briefly: Inhibition of SUV39H2 (unknown origin) by HMT assay.
Chain of Histone-lysine N-methyltransferase SUV39H2 (Q9H5I1 whole entry): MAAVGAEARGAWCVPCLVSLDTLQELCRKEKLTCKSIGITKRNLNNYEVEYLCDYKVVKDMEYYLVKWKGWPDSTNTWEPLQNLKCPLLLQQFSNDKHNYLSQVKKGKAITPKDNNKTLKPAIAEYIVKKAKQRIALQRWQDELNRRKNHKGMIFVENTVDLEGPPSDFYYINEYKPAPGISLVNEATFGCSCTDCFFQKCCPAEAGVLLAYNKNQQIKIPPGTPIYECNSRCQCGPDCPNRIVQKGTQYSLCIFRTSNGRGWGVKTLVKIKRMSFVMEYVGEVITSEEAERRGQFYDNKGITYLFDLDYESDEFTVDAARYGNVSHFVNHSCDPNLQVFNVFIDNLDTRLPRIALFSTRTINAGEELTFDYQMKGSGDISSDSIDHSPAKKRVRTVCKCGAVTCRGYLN
The target of data set [8] is T4, Histone-lysine N-methyltransferase SETD7 (Homo sapiens, UniProt Q8WTS6).
T4 sequence (Q8WTS6 whole entry): T2 sequence (whole entry)
Nature of the data set: Inhibition of SETD7 (unknown origin) by HMT assay.

Chain of Histone-lysine N-methyltransferase EZH2 (Q15910 whole entry Y641N, one chain of several): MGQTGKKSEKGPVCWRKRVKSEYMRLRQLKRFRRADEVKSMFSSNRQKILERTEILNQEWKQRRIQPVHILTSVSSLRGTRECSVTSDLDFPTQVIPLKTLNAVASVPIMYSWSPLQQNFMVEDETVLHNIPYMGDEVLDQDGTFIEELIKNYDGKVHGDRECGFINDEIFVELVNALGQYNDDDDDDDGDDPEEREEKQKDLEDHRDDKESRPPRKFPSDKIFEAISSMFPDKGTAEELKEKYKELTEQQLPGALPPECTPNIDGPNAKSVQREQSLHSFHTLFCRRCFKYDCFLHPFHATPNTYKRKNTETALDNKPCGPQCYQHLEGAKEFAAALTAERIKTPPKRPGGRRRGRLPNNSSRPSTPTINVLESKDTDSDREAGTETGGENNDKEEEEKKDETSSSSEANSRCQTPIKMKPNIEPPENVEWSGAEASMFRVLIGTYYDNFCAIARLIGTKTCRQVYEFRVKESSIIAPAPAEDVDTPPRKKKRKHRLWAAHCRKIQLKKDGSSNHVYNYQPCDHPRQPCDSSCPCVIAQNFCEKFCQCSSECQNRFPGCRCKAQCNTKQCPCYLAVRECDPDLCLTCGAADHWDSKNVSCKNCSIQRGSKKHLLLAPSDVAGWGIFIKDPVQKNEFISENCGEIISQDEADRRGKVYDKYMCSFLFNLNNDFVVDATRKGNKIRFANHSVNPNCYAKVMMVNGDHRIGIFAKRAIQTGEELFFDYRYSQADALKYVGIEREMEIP

`Nc1ncnc2c1ncn2[C@@H]1O[C@H](CSCC[C@H](N)C(=O)NCc2cc(-c3ccccc3)[nH]n2)[C@@H](O)[C@H]1O`: the IC50 in data set [1] is 0.07 µM; in data set [2], 9.5 µM; in data set [4], 2.1 µM; in data set [7] it was more than 100 µM; in data set [8] it was more than 100 µM. In addition, the inhibition entry in data set [3] and in data set [6] was “inactive” throughout. Moreover, the Papp in data set [5] amounted to 1 ×10⁻⁶ cm/s.

Source of the values: ChEMBL document CHEMBL3396964, “SAH derived potent and selective EZH2 inhibitors” (Bioorg Med Chem Lett, 2015).
